Patent US8846873B2, “Antibodies directed to GPNMB and uses thereof” (Celldex Therapeutics, Inc., priority 2004, dated 2014)

Tests used:
Assay type in all cases: cell-based, human
[1] = tested on: A2058; assay: Clonogenic assay with 1.15.1-AE
Procedure: (§1) Melanoma cell lines were plated onto flat bottom 96-well tissue culture plates (Becton Dickinson, Franklin Lakes, N.J., USA). On day 2 or when cells reach ˜25% confluency, various concentrations of unconjugated and Auristatin E-conjugated 1.15.1 were added to cells. MAb 2.6.2-AE was also used as a conjugated isotype control in this study. On day 5, the cells were trypsinized, transferred to 6-well tissue culture plates and incubated at 37° C. Plates were examined daily. On days 8-10, all plates were Giemsa stained and colonies on the plates were counted.

[2] = tested on: G361; assay: Clonogenic assay with 1.15.1-AE
Procedure: as §1

[3] = tested on: HEMNLP; assay: Clonogenic assay with 1.15.1-AE
Procedure: as §1

[4] = tested on: HT144; assay: Clonogenic assay with 1.15.1-AE
Procedure: as §1

[5] = tested on: LOXIMVI; assay: Clonogenic assay with 1.15.1-AE
Procedure: as §1

[6] = tested on: M14; assay: Clonogenic assay with 1.15.1-AE
Procedure: as §1

[7] = tested on: MEWO; assay: Clonogenic assay with 1.15.1-AE
Procedure: as §1

[8] = tested on: RPMI-7951; assay: Clonogenic assay with 1.15.1-AE
Procedure: as §1

[9] = tested on: SK-Mel 2; assay: Clonogenic assay with 1.15.1-AE
Procedure: as §1

[10] = tested on: SK-Mel 5; assay: Clonogenic assay with 1.15.1-AE
Procedure: as §1

[11] = tested on: UACC-257; assay: Clonogenic assay with 1.15.1-AE
Procedure: as §1

[12] = tested on: UACC-62; assay: Clonogenic assay with 1.15.1-AE
Procedure: as §1

[13] = tested on: WM-266-4; assay: Clonogenic assay with 1.15.1-AE
Procedure: as §1

[14] = tested on: HEK293 cells; assay: Clonogenic assay, empty vector or GPNMB transfected cells; conditions: 96 hours treatment
Procedure: HEK293 cells are transfected with empty vector (vector) or GPNMB-containing plasmid (GPNMB) as described in Materials and Methods. A. Cell lysates are prepared from the transfected HEK293 cells and the expression of GPNMB (upper panel) or actin (lower panel) is determined by immunoblotting. Lane 1: Empty vector transfectants. Lane 2: GPNMB transfectants. B. Flow cytometry analysis of GPNMB expression on empty vector or GPNMB transfected cells. C. […] After a clonogenic assay, the surviving fraction is normalized to the untreated control and expressed as a percentage of the control using GraphPad Prism graphing software. Each treatment is performed in triplicate. A representative graph from two independent experiments is shown.
Cells were plated in 96-well plates and allowed to recover overnight. […] The cells were then transferred into 6-well plates and allowed to form colonies. Colonies were stained with Giemsa stain (Sigma) and counted. The surviving cell fractions were calculated based upon the ratio of the treated sample and the untreated control. The results were expressed as a percentage of control using GraphPad Prism Version 4 software.

CR011-vcMMAE: anti-GPNMB antibody 1.15.1 coupled to monomethylauristatin E via protease-sensitive valine-citrulline linker
Clonogenic Assay with 1.15.1-AE IC50 [1]: No effect | Clonogenic Assay with 1.15.1-AE IC50 [2]: 1.053 µg/mL | IC50 [2]: 6.5 nM | Clonogenic Assay with 1.15.1-AE IC50 [3]: Inconclusive | Clonogenic Assay with 1.15.1-AE IC50 [4]: Inconclusive | Clonogenic Assay with 1.15.1-AE IC50 [5]: No effect | Clonogenic Assay with 1.15.1-AE IC50 [6]: Inconclusive | Clonogenic Assay with 1.15.1-AE IC50 [7]: Inconclusive | Clonogenic Assay with 1.15.1-AE IC50 [8]: 0.972 µg/mL | IC50 [8]: 6 nM | Clonogenic Assay with 1.15.1-AE IC50 [9]: 0.111 µg/mL | IC50 [9]: 0.75 nM | Clonogenic Assay with 1.15.1-AE IC50 [10]: 0.237 µg/mL | IC50 [10]: 1.6 nM | Clonogenic Assay with 1.15.1-AE IC50 [11]: 0.825 µg/mL | IC50 [11]: 5.5 nM | Clonogenic Assay with 1.15.1-AE IC50 [12]: 0.697 µg/mL | IC50 [12]: 4.3 nM | Clonogenic Assay with 1.15.1-AE IC50 [13]: 0.345 µg/mL | IC50 [13]: 2.3 nM | sensitivity to growth-inhibition, GPNMB-expressing vs control HEK293 cells [14]: more sensitive
